Assay results from ChEMBL document CHEMBL1629664, “Oral and parenteral therapeutic options for outpatient urinary infections caused by enterobacteriaceae producing CTX-M extended-spectrum beta-lactamases” (2009).
Values after ≈ are worked out from the molar mass of the structure shown. Values belong to the molecule of their own block, whether it stands above or below them.

Legend:
Assay type in all cases: functional
Enterobacteriaceae [1] = test: Antibacterial activity against beta-lactamase SHV or TEM ESBL-producing Enterobacteriaceae assessed as percent susceptible isolates by broth microdilution method
Enterobacteriaceae [2] = test: Antibacterial activity against beta-lactamase CTX-M ESBL-producing Enterobacteriaceae by broth microdilution method
Enterobacteriaceae [3] = test: Antibacterial activity against beta-lactamase SHV or TEM ESBL-producing Enterobacteriaceae by broth microdilution method
Enterobacteriaceae [4] = test: Antibacterial activity against beta-lactamase CTX-M ESBL-producing Enterobacteriaceae assessed as percent susceptible isolates by broth microdilution method
Escherichia coli [5] = test: Antibacterial activity against beta-lactamase ESBL-producing Escherichia coli by broth microdilution method
Escherichia coli [6] = test: Antibacterial activity against beta-lactamase ESBL-producing Escherichia coli assessed as percent susceptible isolates by broth microdilution method
Proteus mirabilis = test: Antibacterial activity against beta-lactamase ESBL-producing Proteus mirabilis assessed as percent susceptible isolates by broth microdilution method
Klebsiella sp. = test: Antibacterial activity against beta-lactamase ESBL-producing Klebsiella sp. assessed as percent susceptible isolates by broth microdilution method
Enterobacteriaceae [7] = test: Antibacterial activity against beta-lactamase CTX-M ESBL-producing Enterobacteriaceae assessed as percent susceptible isolates by twofold dilution method
Enterobacteriaceae [8] = test: Antibacterial activity against beta-lactamase SHV or TEM ESBL-producing Enterobacteriaceae assessed as percent susceptible isolates by twofold dilution method
Enterobacteriaceae [9] = test: Antibacterial activity against beta-lactamase CTX-M ESBL-producing Enterobacteriaceae by twofold dilution method
Enterobacteriaceae [10] = test: Antibacterial activity against beta-lactamase SHV or TEM ESBL-producing Enterobacteriaceae by twofold dilution method
Enterobacteriaceae [11] = test: Antibacterial activity against beta-lactamase SHV or TEM ESBL-producing Enterobacteriaceae assessed as percent susceptible isolates by agar dilution method
Enterobacteriaceae [12] = test: Antibacterial activity against beta-lactamase CTX-M ESBL-producing Enterobacteriaceae by agar dilution method
Enterobacteriaceae [13] = test: Antibacterial activity against beta-lactamase SHV or TEM ESBL-producing Enterobacteriaceae by agar dilution method
Enterobacteriaceae [14] = test: Antibacterial activity against beta-lactamase CTX-M ESBL-producing Enterobacteriaceae assessed as percent susceptible isolates by agar dilution method
Enterobacteriaceae [15] = test: Antibacterial activity against beta-lactamase CTX-M ESBL-producing Enterobacteriaceae assessed as percent susceptible isolates by twofold dilution method in presence of beta-lactamase inhibitor clavulanate
Enterobacteriaceae [16] = test: Antibacterial activity against beta-lactamase SHV or TEM ESBL-producing Enterobacteriaceae assessed as percent susceptible isolates by twofold dilution method in presence of beta-lactamase inhibitor clavulanate
Enterobacteriaceae [17] = test: Antibacterial activity against beta-lactamase SHV or TEM ESBL-producing Enterobacteriaceae by twofold dilution method in presence of beta-lactamase inhibitor clavulanate
Enterobacteriaceae [18] = test: Antibacterial activity against beta-lactamase CTX-M ESBL-producing Enterobacteriaceae by twofold dilution method in presence of beta-lactamase inhibitor clavulanate

Compound: O=C(O)c1cn(C2CC2)c2cc(N3CCNCC3)c(F)cc2c1=O [CIPROFLOXACIN]
- Activity (Enterobacteriaceae [1]): 36.4%
- MIC50 (Enterobacteriaceae [2]): 32 µg/mL (≈ 96.6 µM)
- MIC90 (Enterobacteriaceae [2]): 32 µg/mL (≈ 96.6 µM)
- MIC50 (Enterobacteriaceae [3]): 32 µg/mL (≈ 96.6 µM)
- MIC90 (Enterobacteriaceae [3]): 32 µg/mL (≈ 96.6 µM)
- Activity (Enterobacteriaceae [4]): 4.3%

Compound: C[C@H]1c2cccc(O)c2C(=O)C2=C(O)[C@]3(O)C(=O)C(C(N)=O)=C(O)[C@@H](N(C)C)[C@@H]3[C@@H](O)[C@@H]21.O [DOXYCYCLINE]
- Activity (Enterobacteriaceae [1]): 18.2%
- MIC50 (Enterobacteriaceae [2]): 16 µg/mL
- MIC90 (Enterobacteriaceae [2]): 16 µg/mL
- MIC50 (Enterobacteriaceae [3]): 16 µg/mL
- MIC90 (Enterobacteriaceae [3]): 16 µg/mL
- Activity (Enterobacteriaceae [4]): 10.9%

Compound: O=C1CN(/N=C/c2ccc([N+](=O)[O-])o2)C(=O)N1 [NITROFURANTOIN]
- Activity (Enterobacteriaceae [1]): 45.5%
- MIC50 (Enterobacteriaceae [2]): 16 µg/mL (≈ 67.2 µM)
- MIC90 (Enterobacteriaceae [2]): 64 µg/mL (≈ 269 µM)
- MIC50 (Enterobacteriaceae [3]): 64 µg/mL (≈ 269 µM)
- MIC90 (Enterobacteriaceae [3]): 64 µg/mL (≈ 269 µM)
- Activity (Enterobacteriaceae [4]): 73.9%

Compound: C=CC1=C(C(=O)O)N2C(=O)[C@@H](NC(=O)/C(=N\O)c3csc(N)n3)[C@H]2SC1 [CEFDINIR]
- Activity (Enterobacteriaceae [7]): 0%
- Activity (Enterobacteriaceae [8]): 0%
- MIC50 (Enterobacteriaceae [9]): 16 µg/mL (≈ 40.5 µM)
- MIC90 (Enterobacteriaceae [9]): 16 µg/mL (≈ 40.5 µM)
- MIC50 (Enterobacteriaceae [10]): 4 µg/mL (≈ 10.1 µM)
- MIC90 (Enterobacteriaceae [10]): 16 µg/mL (≈ 40.5 µM)

Compound: C[C@@H]1O[C@@H]1P(=O)(O)O [FOSFOMYCIN]
- Activity (Enterobacteriaceae [11]): 100%
- MIC50 (Enterobacteriaceae [12]): 0.5 µg/mL (≈ 3.62 µM)
- MIC90 (Enterobacteriaceae [12]): 64 µg/mL (≈ 464 µM)
- MIC50 (Enterobacteriaceae [13]): 4 µg/mL (≈ 29 µM)
- MIC90 (Enterobacteriaceae [13]): 8 µg/mL (≈ 57.9 µM)
- Activity (Enterobacteriaceae [14]): 91.3%

The next lines start with results.

- MIC90 (Escherichia coli [5]): 0.06 µg/mL (≈ 0.126 µM)
- MIC50 (Enterobacteriaceae [2]): 0.06 µg/mL (≈ 0.126 µM)
- MIC90 (Enterobacteriaceae [2]): 0.25 µg/mL (≈ 0.526 µM)
- MIC50 (Enterobacteriaceae [3]): 0.12 µg/mL (≈ 0.252 µM)
- MIC90 (Enterobacteriaceae [3]): 1 µg/mL (≈ 2.1 µM)
Compound: C[C@@H](O)[C@H]1C(=O)N2C(C(=O)O)=C(S[C@@H]3CN[C@H](C(=O)Nc4cccc(C(=O)O)c4)C3)[C@H](C)[C@H]12 [ERTAPENEM]
- Activity (Escherichia coli [6]): 100%
- Activity (Enterobacteriaceae [1]): 100%
- Activity (Proteus mirabilis): 100%
- Activity (Enterobacteriaceae [4]): 100%
- Activity (Klebsiella sp.): 100%

- MIC50 (Enterobacteriaceae [17]): 32 µg/mL
- MIC90 (Enterobacteriaceae [17]): 32 µg/mL
- MIC50 (Enterobacteriaceae [18]): 32 µg/mL
- MIC90 (Enterobacteriaceae [18]): 32 µg/mL
- MIC50 (Enterobacteriaceae [9]): 4 µg/mL (≈ 10.9 µM)
- MIC90 (Enterobacteriaceae [9]): 4 µg/mL (≈ 10.9 µM)
- MIC50 (Enterobacteriaceae [10]): 4 µg/mL (≈ 10.9 µM)
- MIC90 (Enterobacteriaceae [10]): 4 µg/mL (≈ 10.9 µM)
Compound: CC1(C)S[C@@H]2[C@H](NC(=O)[C@H](N)c3ccc(O)cc3)C(=O)N2[C@H]1C(=O)O [AMOXICILLIN]
- Activity (Enterobacteriaceae [15]): 10.9%
- Activity (Enterobacteriaceae [16]): 45.5%
